Consider 20 compounds from patent publication US9518052B2, “Pyrazolopyridines and pyrazolopyrimidines” (Pfizer Inc., priority 2014, dated 2016).

Test [1] has as its system rhIFNγ stimulated STAT-3 phosphorylation in the A549 human epithelial cell line. Briefly: A549 Cell Assay: Inhibition of pSTAT3. It counts as cell-based. The conditions noted are these: A549 cells. On the procedure:
A549 Cell Assay: Inhibition of pSTAT3
An assay measuring the efficacy of JAK inhibitors on the functional response of recombinant human interferon γ (rhIFNγ) stimulated STAT-3 phosphorylation in the A549 human epithelial cell line.
A549 cells (ATCC #CCL-185), were plated at 30,000 cells/well in 96 well flat bottomed tissue culture plates (BD#353072) in 200 μL of growth medium (DMEM, Pfizer media prep, with 10% Fetal Bovine Serum, Sigma #F4135, 2 mM L-Glutamine, Pfizer media prep, 100 U/mL penicillin, Pfizer media prep, and 200 μg/ml streptomycin, Pfizer media prep), and cultured at 37° C., 5% CO2 incubator for 18 hours. Growth medium was removed by vacuum aspiration (V&P Scientific #vp187 bp-60), and 90 μL of pre-warmed assay medium (DMEM with 0.2% BSA, Miltenyi #130-091-376) was added to each well and incubated for 15 minutes at 37° C. 10 μL of vehicle control or test compound (final concentration range of 0.3 nM to 10 μM with 0.1% DMSO) was added to the cells. Plates were incubated at 37° C. for 1 hour. After compound incubation, 10 μL of 220 ng/mL recombinant human IFNγ (R&D Systems #285-IF, final rhIFNγ concentration of 20 ng/mL) was added to the cells and plates were incubated for 30 minutes at 37° C. Wells containing A549 cells, medium with 0.1% DMSO and no rhIFNγ were used as background controls. After rhIFNγ stimulation, media was aspirated from each well and 35 μL/well of iced-cold MSD lysis buffer containing protease and phosphatase inhibitors from Phospho-STAT3 Tyr705 assay kit (Meso-Scale Discovery #K150DID) was added to each well. Plates were incubated at 4° C. with shaking for 30 minutes. Cell lysates were assayed following the MSD Phospho-STAT3 Tyr705 assay kit protocol to detect pSTAT3.
Data were collected and transformed into percent inhibition and calculated using the following formula: […]

For a further test, the target named is TYK2 (Homo sapiens (Human), UniProt P29597). Briefly: JAK Caliper Enzyme Assay at 1 mM ATP (TYK2). It counts as biochemical. To be noted: Caliper assay at 1 mM ATP.
A further test deals with JAK2 (Homo sapiens (Human), UniProt O60674). Nature of the test: JAK Caliper Enzyme Assay at 1 mM ATP (JAK2). The class given is biochemical. To be noted: Caliper assay at 1 mM ATP.
The next test deals with JAK1 (Homo sapiens (Human), UniProt P23458). Nature of the test: JAK Caliper Enzyme Assay at 1 mM ATP (JAK1). The conditions noted are these: Caliper assay at 1 mM ATP. It counts as biochemical.
Another test concerns the target JAK3 (Homo sapiens (Human), UniProt P52333). Nature of the test: JAK Caliper Enzyme Assay at 1 mM ATP (JAK3). It counts as biochemical. To be noted: Caliper assay at 1 mM ATP.

Sequence of JAK2 (O60674 whole entry, species assumed): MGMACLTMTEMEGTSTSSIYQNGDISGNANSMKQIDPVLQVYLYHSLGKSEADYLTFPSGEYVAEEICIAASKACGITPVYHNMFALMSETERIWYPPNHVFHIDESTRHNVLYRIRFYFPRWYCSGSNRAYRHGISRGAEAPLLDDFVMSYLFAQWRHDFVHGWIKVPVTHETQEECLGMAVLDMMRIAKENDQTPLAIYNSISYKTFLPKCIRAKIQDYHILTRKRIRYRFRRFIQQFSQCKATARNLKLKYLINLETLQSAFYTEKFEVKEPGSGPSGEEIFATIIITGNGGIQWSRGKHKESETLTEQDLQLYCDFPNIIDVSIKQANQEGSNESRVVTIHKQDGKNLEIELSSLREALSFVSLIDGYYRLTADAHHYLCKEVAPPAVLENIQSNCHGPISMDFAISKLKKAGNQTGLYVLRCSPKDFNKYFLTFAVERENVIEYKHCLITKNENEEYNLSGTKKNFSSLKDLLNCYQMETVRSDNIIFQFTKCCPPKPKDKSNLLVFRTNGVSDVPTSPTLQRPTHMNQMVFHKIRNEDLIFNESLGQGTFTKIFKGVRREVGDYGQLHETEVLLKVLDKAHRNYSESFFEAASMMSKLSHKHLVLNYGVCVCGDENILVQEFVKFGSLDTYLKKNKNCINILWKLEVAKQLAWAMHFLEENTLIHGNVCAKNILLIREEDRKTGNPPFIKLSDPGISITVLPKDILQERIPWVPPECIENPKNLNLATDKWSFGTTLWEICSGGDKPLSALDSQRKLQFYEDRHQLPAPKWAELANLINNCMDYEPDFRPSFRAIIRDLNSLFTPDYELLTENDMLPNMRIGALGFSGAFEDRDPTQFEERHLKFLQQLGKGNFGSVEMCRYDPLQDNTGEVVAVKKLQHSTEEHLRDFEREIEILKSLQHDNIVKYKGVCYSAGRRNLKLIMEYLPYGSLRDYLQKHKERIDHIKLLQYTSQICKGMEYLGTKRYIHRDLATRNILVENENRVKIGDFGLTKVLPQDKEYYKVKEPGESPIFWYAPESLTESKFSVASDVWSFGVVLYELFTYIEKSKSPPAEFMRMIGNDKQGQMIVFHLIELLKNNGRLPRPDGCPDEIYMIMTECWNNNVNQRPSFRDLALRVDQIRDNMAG
Sequence of JAK3 (P52333 whole entry, species assumed): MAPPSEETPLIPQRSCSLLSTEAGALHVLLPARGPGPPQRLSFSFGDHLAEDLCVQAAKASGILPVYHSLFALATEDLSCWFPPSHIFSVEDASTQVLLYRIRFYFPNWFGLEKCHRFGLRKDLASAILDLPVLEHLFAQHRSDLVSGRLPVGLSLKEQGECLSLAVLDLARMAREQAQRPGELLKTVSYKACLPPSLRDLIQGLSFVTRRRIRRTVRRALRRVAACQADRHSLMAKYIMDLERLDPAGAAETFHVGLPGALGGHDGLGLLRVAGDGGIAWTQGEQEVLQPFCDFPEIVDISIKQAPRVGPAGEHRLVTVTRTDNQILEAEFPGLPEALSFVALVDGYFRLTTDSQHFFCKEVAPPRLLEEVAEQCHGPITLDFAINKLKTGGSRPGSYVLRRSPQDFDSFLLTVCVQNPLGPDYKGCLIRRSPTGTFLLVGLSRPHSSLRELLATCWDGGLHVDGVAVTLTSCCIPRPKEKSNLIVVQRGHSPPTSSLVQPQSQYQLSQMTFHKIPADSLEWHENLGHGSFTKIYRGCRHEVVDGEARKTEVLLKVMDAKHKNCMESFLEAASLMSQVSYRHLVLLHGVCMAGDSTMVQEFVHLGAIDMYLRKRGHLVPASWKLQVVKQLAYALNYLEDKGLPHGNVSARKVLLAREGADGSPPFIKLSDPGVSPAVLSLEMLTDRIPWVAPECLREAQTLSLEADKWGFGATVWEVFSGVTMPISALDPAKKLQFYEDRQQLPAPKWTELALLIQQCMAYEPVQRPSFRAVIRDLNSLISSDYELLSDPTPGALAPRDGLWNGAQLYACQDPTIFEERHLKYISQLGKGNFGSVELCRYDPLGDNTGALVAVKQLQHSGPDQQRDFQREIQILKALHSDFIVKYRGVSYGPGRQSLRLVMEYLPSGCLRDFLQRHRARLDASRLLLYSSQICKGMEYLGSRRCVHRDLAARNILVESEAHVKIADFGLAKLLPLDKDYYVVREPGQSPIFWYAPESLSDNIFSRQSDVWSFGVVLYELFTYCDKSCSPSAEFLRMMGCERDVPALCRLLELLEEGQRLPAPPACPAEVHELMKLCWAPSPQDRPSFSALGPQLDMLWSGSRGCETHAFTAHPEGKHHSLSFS
Sequence of JAK1 (P23458 whole entry, species assumed): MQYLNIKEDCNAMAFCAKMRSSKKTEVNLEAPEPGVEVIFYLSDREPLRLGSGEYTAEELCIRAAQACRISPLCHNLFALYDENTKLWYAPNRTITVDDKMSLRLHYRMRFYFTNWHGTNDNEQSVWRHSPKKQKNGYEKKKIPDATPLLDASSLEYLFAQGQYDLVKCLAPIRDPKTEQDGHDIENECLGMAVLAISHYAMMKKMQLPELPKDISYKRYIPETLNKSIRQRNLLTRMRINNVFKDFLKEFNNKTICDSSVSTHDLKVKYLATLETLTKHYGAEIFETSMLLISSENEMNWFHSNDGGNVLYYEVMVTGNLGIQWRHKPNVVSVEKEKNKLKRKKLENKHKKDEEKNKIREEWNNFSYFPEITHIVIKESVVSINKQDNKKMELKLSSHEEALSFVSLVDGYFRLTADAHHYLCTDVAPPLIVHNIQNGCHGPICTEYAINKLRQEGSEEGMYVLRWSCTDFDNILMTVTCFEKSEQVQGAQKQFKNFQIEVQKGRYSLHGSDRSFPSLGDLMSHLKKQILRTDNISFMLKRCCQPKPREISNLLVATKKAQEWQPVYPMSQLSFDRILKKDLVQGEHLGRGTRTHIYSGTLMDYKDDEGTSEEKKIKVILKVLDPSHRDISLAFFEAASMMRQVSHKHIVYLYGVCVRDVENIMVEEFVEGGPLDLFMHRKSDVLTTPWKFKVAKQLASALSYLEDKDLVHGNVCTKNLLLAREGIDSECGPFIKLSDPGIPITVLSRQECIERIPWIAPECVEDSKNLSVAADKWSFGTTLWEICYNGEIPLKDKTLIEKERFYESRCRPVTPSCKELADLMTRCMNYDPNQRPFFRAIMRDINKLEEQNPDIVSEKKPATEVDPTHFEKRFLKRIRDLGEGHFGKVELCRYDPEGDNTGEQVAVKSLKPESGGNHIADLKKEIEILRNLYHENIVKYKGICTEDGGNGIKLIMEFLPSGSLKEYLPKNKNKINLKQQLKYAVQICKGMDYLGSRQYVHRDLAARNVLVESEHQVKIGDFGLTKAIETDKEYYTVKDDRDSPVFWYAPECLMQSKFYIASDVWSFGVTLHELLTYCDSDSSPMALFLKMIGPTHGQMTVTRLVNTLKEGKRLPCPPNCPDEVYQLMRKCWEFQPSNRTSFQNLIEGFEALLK
Sequence of TYK2 (P29597 whole entry, species assumed): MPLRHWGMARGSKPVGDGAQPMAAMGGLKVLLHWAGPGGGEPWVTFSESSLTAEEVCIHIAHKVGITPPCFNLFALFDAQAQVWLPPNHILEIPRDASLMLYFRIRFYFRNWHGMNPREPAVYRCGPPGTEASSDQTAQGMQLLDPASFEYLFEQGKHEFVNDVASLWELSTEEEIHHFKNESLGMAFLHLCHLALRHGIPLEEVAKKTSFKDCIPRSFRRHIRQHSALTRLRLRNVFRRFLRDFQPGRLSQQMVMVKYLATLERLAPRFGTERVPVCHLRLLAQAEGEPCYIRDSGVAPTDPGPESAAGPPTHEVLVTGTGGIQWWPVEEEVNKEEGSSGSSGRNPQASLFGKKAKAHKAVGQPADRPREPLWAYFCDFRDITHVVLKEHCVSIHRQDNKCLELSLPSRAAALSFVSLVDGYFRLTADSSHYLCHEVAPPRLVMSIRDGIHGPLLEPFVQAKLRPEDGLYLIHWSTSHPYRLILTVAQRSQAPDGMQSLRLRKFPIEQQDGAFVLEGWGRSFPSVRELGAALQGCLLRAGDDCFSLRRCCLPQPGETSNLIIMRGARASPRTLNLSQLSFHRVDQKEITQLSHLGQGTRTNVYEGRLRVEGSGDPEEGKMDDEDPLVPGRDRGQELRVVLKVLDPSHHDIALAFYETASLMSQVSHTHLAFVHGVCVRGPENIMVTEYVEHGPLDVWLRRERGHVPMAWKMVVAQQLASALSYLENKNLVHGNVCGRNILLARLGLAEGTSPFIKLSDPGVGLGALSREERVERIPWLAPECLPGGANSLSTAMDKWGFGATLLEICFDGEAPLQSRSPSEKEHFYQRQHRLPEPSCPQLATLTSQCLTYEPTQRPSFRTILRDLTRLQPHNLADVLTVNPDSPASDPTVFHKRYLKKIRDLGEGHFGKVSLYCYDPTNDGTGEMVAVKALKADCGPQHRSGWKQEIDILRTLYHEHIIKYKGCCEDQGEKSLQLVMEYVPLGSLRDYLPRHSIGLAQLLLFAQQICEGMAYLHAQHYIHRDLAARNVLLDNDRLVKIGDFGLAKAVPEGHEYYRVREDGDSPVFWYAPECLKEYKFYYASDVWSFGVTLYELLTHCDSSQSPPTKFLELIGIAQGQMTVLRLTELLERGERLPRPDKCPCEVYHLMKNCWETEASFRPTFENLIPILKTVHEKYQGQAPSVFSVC

Broadly, the IC50 is the concentration needed to halve the response being measured. Low readings indicate greater potency in that assay, high ones weaker potency in that assay. Regarding `CCN(c1ccccc1CNc1nc(-c2cc(F)c(O)cc2CC(F)(F)F)cc2[nH]nc(C(=O)NC)c12)S(C)(=O)=O` [Example 12, 4-({2-[ethyl(methylsulfon-yl)amino]benzyl}ami-no)-6-[5-fluoro-4-hydroxy-2-(2,2,2-trifluoroethyl)phenyl]-N-methyl-1H-pyrazolo[4,3-c]pyridine-3-carboxamide], half-maximal inhibition in test [1] (IC50) required 44.9 nM. This lies in the double-digit nanomolar range.

`CNC(=O)c1n[nH]c2nc(-c3cc(F)c(O)cc3CC(F)(F)F)nc(NCc3ccccc3N(CCO)S(C)(=O)=O)c12` [Example 102, 6-(5-fluoro-4-hydroxy-2-(2,2,2-trifluoroethyl)phenyl)-4-((2-(N-(2-hydroxyethyl)methylsulfonamido)benzyl)amino)-N-methyl-1H-pyrazolo[3,4-d]pyrimidine-3-carboxamide]: it took 3360 nM to reach half-maximal inhibition in test [1] (Homo sapiens) (IC50).

Regarding `CCN(c1ccc(O)cc1CNc1nc(-c2cc(F)c(O)cc2CC(F)(F)F)nc2[nH]nc(C(=O)NC)c12)S(=O)(=O)c1ccccc1` [Example 105, 4-((2-(N-Ethylphenylsulfonamido)-5-hydroxybenzyl)amino)-6-(5-fluoro-4-hydroxy-2-(2,2,2-trifluoroethyl)phenyl)-N-methyl-1H-pyrazolo[3,4-d]pyrimidine-3-carboxamide], half-maximal inhibition in test [1] (Homo sapiens) (IC50) was put at 7020 nM.

`CN(c1cc(O)ccc1CNc1nc(-c2cc(F)c(O)cc2CC(F)(F)F)cc2[nH]nc(C(N)=O)c12)S(C)(=O)=O` [Example 41, 6-[5-Fluoro-4-hydroxy-2-(2,2,2-trifluoroethyl)phenyl]-4-({4-hydroxy-2-[methyl(methylsulfonyl)amino]benzyl}amino)-1H-pyrazolo[4,3-c]pyridine-3-carboxamide]: it took 1180 nM to reach half-maximal inhibition in test [1] (Homo sapiens) (IC50).

On to `Cc1cnc(N(C)S(C)(=O)=O)c(CNc2nc(-c3cc(F)c(O)cc3CC(F)(F)F)cc3[nH]nc(C(N)=O)c23)c1` [Example 86, 6-(5-fluoro-4-hydroxy-2-(2,2,2-trifluoroethyl)phenyl)-4-(((5-methyl-2-(N-methylmethylsulfonam-ido)pyridin-3-yl)methyl)amino)-1H-pyrazolo[4,3-c]pyridine-3-carboxamide], for which the IC50 in test [1] was determined as 425 nM. This counts as sub-micromolar.

In test [1], `CCc1cc(O)c(F)cc1-c1cc2[nH]nc(C(=O)NC)c2c(NCCc2ccc(NS(=O)(=O)c3ccccc3)cc2)n1` [Example 23, 6-(2-ethyl-5-fluoro-4-hydroxyphenyl)-N-methyl-4-[(2-{4-[(phenylsulfonyl)-amino]phenyl}ethyl)ami-no]-1H-pyrazolo[4,3-c]pyridine-3-carboxamide] came in with an IC50 of 51.4 nM.

Regarding `CCS(=O)(=O)N(C)c1ccccc1CNc1nc(-c2cc(F)c(O)cc2CC(F)(F)F)cc2[nH]nc(C(=O)NC)c12` [Example 13], the IC50 in test [1] was 96.7 nM. This IC50 lies about 1.9-fold higher than the previous one.

On to `CNC(=O)c1n[nH]c2cc(-c3cc(F)c(O)cc3CC(F)(F)F)nc(NCc3cc(O)ccc3N(C)S(=O)(=O)c3cccnc3)c12` [Example 54, 6-[5-fluoro-4-hydroxy-2-(2,2,2-trifluoroethyl)phenyl]-4-({5-hydroxy-2-[methyl(pyridin-3-ylsulfonyl)amino]ben-zyl}amino)-N-methyl-1H-pyrazolo[4,3-c]pyridine-3-carboxamide], for which half-maximal inhibition in test [1] (IC50) required 135 nM. The IC50 values of the last two compounds are within 1.5-fold of each other.

`CNC(=O)c1n[nH]c2cc(-c3cc(F)c(O)cc3CC(F)(F)F)nc(NCc3ccccc3N(CCO)S(C)(=O)=O)c12` [Example 24, 6-[5-fluoro-4-hydroxy-2-(2,2,2-trifluoroethyl)phenyl]-4-({2-[(2-hydroxyethyl)-(methylsulfonyl)ami-no]benzyl}amino)-N-methyl-1H-pyrazolo[4,3-c]pyridine-3-carboxamide]: in test [1], inhibition was half-maximal at 226 nM (IC50).

With `CN(c1ccc(O)cc1CNc1nc(-c2cc(F)c(O)cc2CC(F)(F)F)nc2[nH]nc(C(N)=O)c12)S(C)(=O)=O` [Example 97, 6-(5-Fluoro-4-hydroxy-2-(2,2,2-trifluoroethyl)phenyl)-4-((5-hydroxy-2-(N-methylmethylsulfonamido)benzyl)amino)-1H-pyrazolo[3,4-d]pyrimidine-3-carboxamide], in test [1] (Homo sapiens), the IC50 was determined as 2070 nM.

For the compound `CNC(=O)c1n[nH]c2nc(-c3cc(F)c(O)cc3CC(F)(F)F)nc(NCc3nccnc3N(C)S(C)(=O)=O)c12` [Example 100, 6-(5-Fluoro-4-hydroxy-2-(2,2,2-trifluoroethyl)phenyl)-N-methyl-4-(((3-(N-methylmethyl-sulfonamido)pyrazin-2-yl)methyl)amino)-1H-pyrazolo[3,4-d]pyrimidine-3-carboxamide], 6880 nM corresponded to half-maximal inhibition in test [1] (Homo sapiens) (IC50).

Take `CS(=O)(=O)N(CCO)c1ccccc1CNc1nc(-c2cc(F)c(O)cc2CC(F)(F)F)cc2[nH]nc(C(N)=O)c12` [Example 27, 6-[5-fluoro-4-hydroxy-2-(2,2,2-trifluoroethyl)phenyl]-4-({2-[(2-hydroxyethyl)(methylsul-fonyl)amino]benzyl}amino)-1H-pyrazolo[4,3-c]pyridine-3-carboxamide]: the IC50 in test [1] is 874 nM. This lies in the sub-micromolar range.

`CN(c1ccccc1CNc1nc(-c2cc(F)c(O)cc2CC(F)(F)F)nc2[nH]nc(-c3nnc(C4CCN(C(=O)CN5CCCC5)CC4)[nH]3)c12)S(C)(=O)=O` [Example 168, N-(2-{[(6-[5-Fluoro-4-hydroxy-2-(2,2,2-trifluoroethyl)phenyl]-3-{5-[1-(pyrrolidin-1-ylacetyl)piperidin-4-yl]-4H-1,2,4-triazol-3-yl}-1H-pyrazolo[3,4-d]pyrimidin-4-yl)amino]methyl}phenyl)-N-methylmethanesulfonamide] displayed an IC50 in test [1] (Homo sapiens) of 13300 nM.

In test [1], `CCc1cc(O)c(F)cc1-c1cc2[nH]nc(C(=O)NC)c2c(NCc2ccccc2N(CC)S(C)(=O)=O)n1` [Example 9, 6-(2-ethyl-5-fluoro-4-hydroxyphenyl)-4-({2-[ethyl(methylsulfonyl)ami-no]benzyl}amino)-N-methyl-1H-pyrazolo[4,3-c]pyridine-3-carboxamide] showed an IC50 of 14.9 nM.

Regarding `CCc1cc(O)c(F)cc1-c1cc2[nH]nc(C(=O)NC)c2c(NCc2ccccc2N(C)S(N)(=O)=O)n1` [Example 73, 6-(2-ethyl-5-fluoro-4-hydroxyphenyl)-N-methyl-4-({2-[methyl(sulfamoyl)-amino]benzyl}amino)-1H-pyrazolo[4,3-c]pyridine-3-carboxamide], the IC50 against TYK2 turned out to be 33.9 nM; at JAK2, 18.8 nM; at JAK1, 5.4 nM; on JAK3, 80.9 nM.

In the case of `CN(c1ccccc1CNCc1nc(-c2cc(F)c(O)cc2CC(F)(F)F)cc2[nH]ncc12)S(C)(=O)=O` [Example 149], the IC50 against TYK2 was 764 nM; against JAK2, 14.5 nM; against JAK1, 2.7 nM; at JAK3 it was 22.7 nM.

Regarding `Cc1ccc(S(=O)(=O)N(C)c2ccccc2CNc2nc(-c3cc(F)c(O)cc3CC(F)(F)F)cc3[nH]nc(C(N)=O)c23)cn1` [Example 70, 6-[5-fluoro-4-hydroxy-2-(2,2,2-trifluoroethyl)phenyl]-4-[(2-{methyl[(6-methylpyridin-3-yl)sulfonyl]amino}benzyl)amino]-1H-pyrazolo[4,3-c]pyridine-3-carboxamide], the IC50 on TYK2 stood at 79.4 nM; on JAK2, 52.4 nM; at JAK1, 12 nM; against JAK3 it was 208 nM.

`CN(c1ccccc1CNc1nc(-c2cc(F)c(O)cc2CC(F)(F)F)cc2[nH]nc(C(N)=O)c12)S(=O)(=O)c1ccc(N2CCOCC2)nc1` [Example 65, 6-[5-fluoro-4-hydroxy-2-(2,2,2-trifluoroethyl)phenyl]-4-{[2-(methyl{[6-(morpholin-4-yl)pyridin-3-yl]sulfonyl}amino)benzyl]amino}-1H-pyrazolo[4,3-c]pyridine-3-carboxamide]: the IC50 was 126 nM against TYK2, 83.8 nM on JAK2, 23.3 nM at JAK1 and 283 nM against JAK3.

With `CCN(c1ccc(O)cc1CNc1nc(-c2cc(F)c(O)cc2CC(F)(F)F)cc2[nH]nc(C(=O)NC)c12)S(=O)(=O)c1ccccc1` [Example 36, 4-({2-[ethyl(phenyl-sulfonyl)amino]-5-hydroxybenzyl}amino)-6-[5-fluoro-4-hydroxy-2-(2,2,2-trifluoroethyl)phenyl]-N-methyl-1H-pyrazolo[4,3-c]pyridine-3-carboxamide], the IC50 against TYK2 is 364 nM; on JAK2 it was 401 nM; at JAK1, 75 nM; against JAK3 it was 1230 nM.

With `CCN(c1ccc(F)cc1CNc1nc(-c2cc(F)c(O)cc2CC(F)(F)F)cc2[nH]nc(C(N)=O)c12)S(C)(=O)=O` [Example 83, 4-((2-(N-ethylmethylsulfonamido)-5-fluorobenzyl)amino)-6-(5-fluoro-4-hydroxy-2-(2,2,2-trifluoro-ethyl)phenyl)-1H-pyrazolo[4,3-c]pyridine-3-carboxamide], the IC50 is 139 nM against TYK2, 63.3 nM on JAK2, 12.1 nM against JAK1 and 201 nM at JAK3.
